According to patent US20230017045A1, “PYRIDINE AND PYRIMIDINE CARBOXYLATE HERBICIDES AND METHODS OF USE THEREOF” (Dow AgroSciences LLC, priority 2017, published 2023):
Read-outs that look alike come from different tables or passages of the source.

System: test plant species
Test: Post-emergent herbicidal activity test (greenhouse, foliar spray, visual growth reduction)
Format: in vivo
Settings: post-emergence, 336 h, 140 g ai/ha
Protocol: Post-emergent Test: Seeds or nutlets of the desired test plant species were planted in Sun Gro Metro-Mix® 360 planting mixture, which typically has a pH of 6.0 to 6.8 and an organic matter content of about 30 percent, in plastic pots with a surface area of 64 square centimeters. In some aspects, to ensure good germination and healthy plants, a fungicide treatment and/or other chemical or physical treatment was applied. The plants were grown for 7-21 d in a greenhouse with an approximate 15 h photoperiod which was maintained at 23-29° C. during the day and 22-28° C. during the night. Nutrients and water were added on a regular basis and supplemental lighting was provided with overhead metal halide 1000-Watt lamps as necessary. Plants were used for testing when they reached the first or second true leaf stage. A weighed amount, determined by the highest rate to be tested, of each test compound was placed in a 25 mL glass vial and was dissolved in 4 mL of a 97:3 v/v mixture of acetone and DMSO to obtain concentrated stock solutions. […] The concentrated stock solutions obtained were diluted with 20 mL of an aqueous mixture containing acetone, water, isopropyl alcohol, DMSO, […] crop oil concentrate, and X-77 surfactant in a 48.5:39:10:1.5:1.0:0.02 v/v ratio to obtain spray solutions containing the application rate. Compound requirements are based upon a 12 mL application volume at a rate of 187 liters per hectare (L/ha). Formulated compounds were applied to the plant material with an overhead Mandel track sprayer equipped with […] nozzles calibrated to deliver 187 L/ha over an application area of 0.64 square meters at a spray height of 18 inches (43 cm) above the average plant canopy height. Control plants were sprayed in the same manner with the solvent blank. The treated plants and control plants were placed in a greenhouse as described above and watered by subirrigation to prevent wash-off of the test compounds. After 14 d, the condition of the test plants as compared with that of the nontreated and control plants was determined visually and scored on a scale of 0 to 100 percent where 0 corresponds to no injury and 100 corresponds to complete control. In the reporting of the results, Table A: Percent Growth Reduction Conversion Table was used.

[1] = ECHCG: barnyardgrass (Echinochloa crus-galli), 14 days after application, read-out: Visual Growth Reduction (%) 14 Days After Application, ECHCG
[2] = IPOHE: ivy-leaf morning glory (Ipomoea hederacea), 14 days after application, read-out: Visual Growth Reduction (%) 14 Days After Application, IPOHE
[3] = ORYSA: rice (Oryza sativa), 14 days after application, read-out: Visual Growth Reduction (%) 14 Days After Application, ORYSA
[4] = SORVU: grain sorghum (Sorghum vulgare), 14 days after application, read-out: Visual Growth Reduction (%) 14 Days After Application, SORVU
[5] = STEME: common chickweed (Stellaria media), 14 days after application, read-out: Visual Growth Reduction (%) 14 Days After Application, STEME
[6] = KCHSC: kochia (Bassia scoparia), 14 days after application, read-out: Visual Growth Reduction (%) 14 Days After Application, KCHSC
[7] = SETFA: giant foxtail (Setaria faberi), 14 days after application, read-out: Visual Growth Reduction (%) 14 Days After Application, SETFA
[8] = TRZAS: wheat, spring (Triticum aestivum), 14 days after application, read-out: Visual Growth Reduction (%) 14 Days After Application, TRZAS
[9] = blackgrass (Alopecurus myosuroides), 14 Days After Application, read-out: Visual Growth Reduction (%) ALOMY
[10] = canada thistle (Cirsium arvense), 14 Days After Application, read-out: Visual Growth Reduction (%) CIRAR
[11] = crabgrass (Digitaria sanguinalis), 14 Days After Application, read-out: Visual Growth Reduction (%) DIGSA
[12] = lambsquarters (Chenopodium album), 14 Days After Application, read-out: Visual Growth Reduction (%) CHEAL
[13] = redroot pigweed (Amaranthus retroflexus), 14 Days After Application, read-out: Visual Growth Reduction (%) AMARE
[14] = wild oat (Avena fatua), 14 Days After Application, read-out: Visual Growth Reduction (%) AVEFA
[15] = yellow nutsedge (Cyperus esculentus), 14 Days After Application, read-out: Visual Growth Reduction (%) CYPES

Row | SMILES | pest or weed control at 140 g/ha [1] | pest or weed control at 140 g/ha [2] | pest or weed control at 140 g/ha [3] | pest or weed control at 140 g/ha [4] | pest or weed control at 140 g/ha [5] | pest or weed control at 140 g/ha [6] | pest or weed control at 140 g/ha [7] | pest or weed control at 140 g/ha [8] | pest or weed control at 140 g/ha [9] | pest or weed control at 140 g/ha [10] | pest or weed control at 140 g/ha [11] | pest or weed control at 140 g/ha [12] | pest or weed control at 140 g/ha [13] | pest or weed control at 140 g/ha [14] | pest or weed control at 140 g/ha [15] | other results
1 | COC(=O)c1nc(-c2ccc(Cl)c(F)c2F)ccc1Cl [F71, Methyl 3-chloro-6-(4-chloro-2,3-difluorophenyl) picolinate] | 0 to 29% | 95 to 100% | 30 to 44% | 75 to 84% | 45 to 59% | – | – | – | – | – | – | – | – | – | – | pest or weed control at 140 g/ha (ALOMY: blackgrass (Alopecurus myosuroides), 14 days after application, read-out: Visual Growth Reduction (%) 14 Days After Application, ALOMY): 0 to 29%; pest or weed control at 140 g/ha (AMARE: redroot pigweed (Amaranthus retroflexus), 14 days after application, read-out: Visual Growth Reduction (%) 14 Days After Application, AMARE): 95 to 100%; pest or weed control at 140 g/ha (AVEFA: wild oat (Avena fatua), 14 days after application, read-out: Visual Growth Reduction (%) 14 Days After Application, AVEFA): 0 to 29%; pest or weed control at 140 g/ha (CHEAL: lambsquarters (Chenopodium album), 14 days after application, read-out: Visual Growth Reduction (%) 14 Days After Application, CHEAL): 95 to 100%; pest or weed control at 140 g/ha (CIRAR: canada thistle (Cirsium arvense), 14 days after application, read-out: Visual Growth Reduction (%) 14 Days After Application, CIRAR): 75 to 84%; pest or weed control at 140 g/ha (CYPES: yellow nutsedge (Cyperus esculentus), 14 days after application, read-out: Visual Growth Reduction (%) 14 Days After Application, CYPES): 60 to 74%; pest or weed control at 140 g/ha (DIGSA: crabgrass (Digitaria sanguinalis), 14 days after application, read-out: Visual Growth Reduction (%) 14 Days After Application, DIGSA): 75 to 84%
2 | COC(=O)c1nc(-c2ccc(C(F)(F)F)c(F)c2F)c(F)cc1Cl [F310, Methyl 3-chloro-6-(2,3-difluoro-4-(trifluoromethyl)phenyl)-5-fluoropicolinate] | 60 to 74% | 95 to 100% | 0 to 29% | 95 to 100% | 0 to 29% | 45 to 59% | 85 to 94% | 60 to 74% | 45 to 59% | 95 to 100% | 95 to 100% | 95 to 100% | 95 to 100% | 60 to 74% | 75 to 84% | –
3 | COC(=O)c1nc(-c2cc(F)c(C(F)(F)F)cc2Cl)c(Cl)cc1Cl [F246, Methyl 3,5-dichloro-6-(2-chloro-5-fluoro-4-(trifluoromethyl)phenyl)picolinate] | 0 to 29% | 95 to 100% | 0 to 29% | 95 to 100% | 0 to 29% | 75 to 84% | 75 to 84% | 0 to 29% | 45 to 59% | 75 to 84% | 85 to 94% | 95 to 100% | 95 to 100% | 0 to 29% | 60 to 74% | –
4 | O=C(O)c1nc(-c2cnc(C(F)(F)F)cc2Cl)ccc1Cl [F205, 4′,5-Dichloro-6′-(trifluoromethyl)-[2,3′-bipyridine]-6-carboxylic acid] | 45 to 59% | 95 to 100% | 0 to 29% | 75 to 84% | 0 to 29% | 0 to 29% | 75 to 84% | 0 to 29% | 0 to 29% | 75 to 84% | 45 to 59% | 75 to 84% | 30 to 44% | 0 to 29% | 0 to 29% | –
